“And” between values parts separate entries of the source, which are not always exact repeats. Equal entries are not always repeated. Where two headings read alike, the source gives them in different places.

Results on eight compounds are retold here after patent US10278929B2, “Identification of stabilizers of multimeric proteins” (The Board of Trustees of the Leland Stanford Junior …, priority 2010, dated 2019).

Data set [1] has as its system WT TTR cytotoxicity in IMR-32 neuroblastoma cells. The data set can be described thus: Inhibition of WT TTR-induced cytotoxicity, resazurin reduction. To be noted: TTR and ligand 8 μM, 24 h. (Resazurin is reduced to fluorescent resorufin, in cell work by metabolically active cells.)
Data set [2] deals with V1221 TTR cytotoxicity in AC16 cardiac cells. The data set can be described thus: Inhibition of V1221 TTR-induced cytotoxicity, resazurin reduction. To be noted: TTR and ligand 8 μM, 24 h.
For data set [3], the target named is wild type biotinylated TTR (Homo sapiens (Human), UniProt P02766). The data set can be described thus: Surface plasmon resonance on immobilized biotinylated TTR. Particulars: SPR. The class given is binding. How it is done: To an ice-cold solution of TTR (20 μM) in PBS was added EZ-Link Sulfo-NHS-LC-Biotin at a ratio of ˜2:1 (biotin:TTR) (minimal biotinylation) and the solution was incubated at room temperature. After 1 hour, un-reacted biotin was removed by passing the sample over a fast (FPLC) desalting column (Superdex™ 75) equilibrated with PBS.
SPR measurements were performed at 25° C. using a Biacore T100 (GE Healthcare) instrument equilibrated in 1% DMSO in PBS as a running buffer. After pretreatment of the streptavidin-coated chip (Sensor Chop SA, Biacore), ˜4000 RU biotinylated TTR was immobilized on one channel leaving the second flow channel as a blank (streptavidin alone) control. For binding measurements, HTS hits were diluted in running buffer (1% DMSO/PBS) and different dilution series were flowed over the chip at 50 μL/min ([…], 600 s wash). A zero concentration sample was used as a negative control. The kinetic data was fitted to a one-to-one binding model using Biacore T100 evaluation software.
For orientation: Surface plasmon resonance follows binding to a sensor surface in real time, without labels.

Data set [4] deals with T1, TTR (Homo sapiens (Human), UniProt P02766). The data set is described as follows: Fluorescence polarization displacement of probe 5 from TTR. To be noted: probe 5 100 nM, TTR 200 nM. A general note: In fluorescence polarisation assays a small probe gives low polarisation when free and higher when bound to something large.
For another data set, the target named is WT TTR (Homo sapiens (Human), UniProt P02766). The data set is described as follows: Acid-mediated fibril formation (turbidity) assay for TTR amyloidogenesis.
The target of data set [5] is T1, TTR. The data set is described as follows: FP saturation binding experiment. Particulars: FITC alone. How it is done:
The binding of probe 5 for TTR was evaluated as follows. […] The samples were allowed to equilibrate by agitation for 20 min at room temperature. Fluorescence polarization (excitation λ 485 nm, emission λ 525 nm, Cutoff λ 515 nm) measurements were taken using SpectraMax M5 Microplate Reader (Molecular Devices). […] Nonspecific FP, produced by the free fluorescent probe 5 as well as by binding of 5 to the plate, was equal to 70±10 mP.

The target of data set [6] is human TTR (wild type, from human plasma) (Homo sapiens (Human), UniProt P02766). The data set can be described thus: Isothermal titration calorimetry (ITC) of ligands against TTR. The format is binding. To be noted: 5 versus 4. Here is the method: Calorimetric titrations were carried out on a VP-ITC calorimeter (MicroCal, Northhampton, Mass.). […] Prior to each titration, all samples were degassed for 10 minutes. The initial injection of 3.0 μL was followed by 30 injections of 8.0 μL each (25° C.) to the point that TTR was fully saturated with ligand. Integration of the thermogram after subtraction of blanks yielded a binding isotherm that was analyzed with MicroCal Origin 5.0 software.

Regarding `O=[N+]([O-])c1cc(O)c(O)c([N+](=O)[O-])c1` [3,5-dinitrocatechol], in data set [1], the “Prevention of WT TTR-induced cytotoxicity” value was “poor inhibitor”. In addition, the “Prevention of V1221 TTR-induced cytotoxicity” value in data set [2] is reported as “poor inhibitor”.

Turning to `O=C(O)Cc1ccccc1Nc1c(Cl)cccc1Cl` [Diclofenac], in data set [3], the “target residence time, fold lower than 7” value is recorded as ~40 ×. The “FP Kapp (apparent binding constant)” value on TTR [4] turned out to be 4.66 µM.

For `Cc1n[nH]c(C)c1CCc1nc2c3ccccc3[nH]c(=O)n2n1` [Compound 15], the “Inhibition of fibril formation at substoichiometric ligand” value at WT TTR (ligand 3.0 μM, TTR 3.6 μM, monitored over 5 days) is > 75%.

Consider fluorescein isothiocyanate [FITC], for which, on TTR [5], the “Change in FP signal upon addition of TTR” value is given as “no change in the FP signal”.

For the compound `O=C(O)c1ccc(-c2c(F)cccc2F)cc1` [Compound 1], the “FP Kapp (apparent binding constant)” value on TTR [4] was 0.231 μM and 0.231 (R^2 = 0.997) μM.

As to `O=C(O)c1cccnc1Nc1cccc(C(F)(F)F)c1` [Niflumic acid, niflumic acid], in data set [2], the “Prevention of V1221 TTR-induced cytotoxicity” value is “relatively poor inhibitor”.

On to `O=C(c1cc(O)c(O)c([N+](=O)[O-])c1)c1ccccc1F` [Ro 41-0960], for which the “Prevention of WT TTR-induced cytotoxicity” value in data set [1] is reported as “completely prevented TTR-induced cytotoxicity”. Also, the “Prevention of V1221 TTR-induced cytotoxicity” value in data set [2] is on record as “completely prevented TTR-induced cytotoxicity”. Moreover, on WT TTR, the “Inhibition of fibril formation at substoichiometric ligand” value is on record as > 75%.

`O=C(O)c1ccccc1Nc1cc(Cl)c(OCCOCCOCCNC(=S)Nc2ccc3c(c2)C(=O)OC32c3ccc(O)cc3Oc3cc(O)ccc32)c(Cl)c1` [Compound 5, 2-(3,5-dichloro-4-(2-(2-(2-(3-(3′,6′-dihydroxy-3-oxo-3H-spiro[isobenzofuran-1,9′-xanthene]-5-yl)thioureido)ethoxy)ethoxy)ethoxy)phenylamino)benzoic acid]: in data set [6], the “Fold decrease in binding affinity to TTR on attaching FITC to 4” value was ~3 fold.
